In general, pest or weed control refers to how far the test organism was held down. A high value points to strong suppression. One may read the melting point as the temperature of the solid-liquid transition.

Drawing on patent US11634393B2, “Substituted tolyl fungicides” (FMC CORPORATION, priority 2018, dated 2023), this text covers pest or weed control and melting point for three compounds.

The test system of one series is Botrytis cinerea. Description: Test E: tomato Botrytis, spray on tomato seedlings, disease control rating. It is filed as in vivo. As to conditions: 100 = 100% disease control, 0 = no disease control relative to the controls; for pest or weed control at 10 ppm: Rate 10 ppm. The text has this: (§1) General protocol for preparing test suspensions for Tests A-F: the test compounds were first dissolved in acetone in an amount equal to 3% of the final volume and then suspended at the desired concentration (in ppm) in acetone and purified water (50/50 mix by volume) containing 250 ppm of the surfactant PEG400 (polyhydric alcohol esters). The resulting test suspensions were then used in Tests A-F.
The test suspension was sprayed to the point of run-off on tomato seedlings. The following day the seedlings were inoculated with a spore suspension of Botrytis cinerea (the causal agent of tomato Botrytis) and incubated in a saturated atmosphere at 20° C. for 48 h, and then moved to a growth chamber at 24° C. for 3 days, after which time visual disease ratings were made.
(§2) A rating of 100 indicates 100% disease control and a rating of 0 indicates no disease control (relative to the controls). A dash (-) indicates the compound was not tested.

A further series relates to Phakopsora pachyrhizi. Description: Test D: Asian soybean rust, spray on soybean seedlings, disease control rating. Type of series: in vivo. As to conditions: Phakopsora pachyrhizi, 216 h, 100 = 100% disease control, 0 = no disease control relative to the controls; for pest or weed control at 10 ppm: Rate 10 ppm. The gist of the method: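 Soybean seedlings sprayed to run-off with compound suspension (ppm, in 50/50 acetone/water with 250 ppm PEG400), inoculated next day with P. pachyrhizi spores, held 24 h saturated at 22°C then 8 days at 22°C. Visual rating 0-100% disease control relative to controls.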

For another series, the system named is Zymoseptoria tritici. Description: Test A: wheat leaf blotch, spray on wheat seedlings, disease control rating. Type of series: in vivo. As to conditions: 100 = 100% disease control, 0 = no disease control relative to the controls; for pest or weed control at 10 ppm: Rate 10 ppm.
From the text: as §1
The test solution was sprayed to the point of run-off on wheat seedlings. The following day the seedlings were inoculated with a spore suspension of Zymoseptoria tritici (the causal agent of wheat leaf blotch) and incubated in a saturated atmosphere at 24° C. for 48 h, and then moved to a growth chamber at 20° C. for 17 days, after which time disease ratings were made.
as §2

For series [1], the system named is Blumeria graminis f. sp. tritici. As to the kind of experiment: Test C: wheat powdery mildew, spray on wheat seedlings, disease control rating. Type of series: in vivo. As to conditions: 192 h, 100 = 100% disease control, 0 = no disease control relative to the controls; for pest or weed control at 10 ppm: Rate 10 ppm.
From the text: as §1
The test suspension was sprayed to the point of run-off on wheat seedlings. The following day the seedlings were inoculated with a spore dust of Blumeria graminis f. sp. tritici, (also known as Erysiphe graminis f. sp. tritici, the causal agent of wheat powdery mildew) and incubated in a growth chamber at 20° C. for 8 days, after which time visual disease ratings were made.
as §2

For series [2], the system named is Puccinia recondita f. sp. tritici. As to the kind of experiment: Test B: wheat leaf rust, spray on wheat seedlings, disease control rating. Type of series: in vivo. As to conditions: Puccinia recondita, 192 h, 100 = 100% disease control, 0 = no disease control relative to the controls; for pest or weed control at 10 ppm: Rate 10 ppm. The method, boiled down: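 Compound in acetone (3% of final volume) was suspended at the stated ppm in acetone/water 50/50 with 250 ppm PEG400 and sprayed to run-off on wheat seedlings. Puccinia recondita spores were inoculated next day, then 24 h saturated atmosphere at 20 °C and 7 days at 20 °C. Rated 0–100% disease control versus controls.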

Each structure is given as a SMILES string.

`COC(=O)NCc1cc(-c2ccn(-c3c(F)cc(C(F)(F)F)cc3F)n2)ccc1C` [Compound 64, methyl N-[[5-[1-[2,6-difluoro-4-(trifluoromethyl)phenyl]-1H-pyrazol-3-yl]-2-methylphenyl]methyl]carbamate] displayed a melting point of 106 to 108 °C. The pest or weed control at 10 ppm in the series on Botrytis cinerea is 0%. The pest or weed control at 10 ppm in the series with Phakopsora pachyrhizi was found to be 100%. In addition, the pest or weed control at 10 ppm in the series on Zymoseptoria tritici was found to be 0%. The same compound had a pest or weed control at 10 ppm in series [1] of 89%. Besides, the pest or weed control at 10 ppm in series [2] was 100%.

`COC(=O)NCc1cc(-c2ccn(-c3c(F)cc(Cl)cc3F)n2)ccc1C` [Compound 6, methyl N-[[5-[1-(4-chloro-2,6-difluorophenyl)-1H-pyrazol-3-yl]-2-methylphenyl]methyl]carbamate] showed a melting point of 148 to 149 °C. This compound also yielded a pest or weed control at 10 ppm in the series with Botrytis cinerea of 0%. This compound also had a pest or weed control at 10 ppm in the series with Phakopsora pachyrhizi of 100%. Also, in the series on Zymoseptoria tritici, the pest or weed control at 10 ppm came out at 7%. Further, the pest or weed control at 10 ppm in series [1] turned out to be 0%. In series [2], this compound displayed a pest or weed control at 10 ppm of 98%.

Consider `COC(=O)NCc1cc(-c2ncn(-c3c(F)cc([N+](=O)[O-])cc3F)n2)ccc1C` [Compound 107], for which the melting point was 179 to 183 °C. In the series with Botrytis cinerea (Rate 250 ppm), this compound displayed a pest or weed control at 250 ppm of 0%. Further, in the series with Phakopsora pachyrhizi (Rate 250 ppm), the pest or weed control at 250 ppm turned out to be 0%. For the same compound, in the series with Zymoseptoria tritici (Rate 250 ppm), the pest or weed control at 250 ppm is 28%. In series [1] (Rate 250 ppm), this compound gave a pest or weed control at 250 ppm of 43%. The same compound gave a pest or weed control at 250 ppm in series [2] (Rate 250 ppm) of 80%.
